Patent publication US20240408085A1, “COMPOUND FOR DEGRADATION OF BCL-2 FAMILY PROTEINS AND MEDICAL APPLICATION THEREOF” (XIZANG HAISCO PHARMACEUTICAL CO., LTD., priority 2021, published 2024)
Where two headings read alike, the source gives them in different places.

System: MOLT-4 cells
Test: Cell proliferation activity in MOLT-4 cells (72 h, cell viability luminescence)
Type: cell-based, human
Conditions: read-out: IC50 for the inhibition of MOLT-4 cell proliferation
Procedure, shortened: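 Human acute lymphoblastic leukemia cells were seeded at 5×10^3 cells/well in RPMI-1640 with 10% FBS. They were treated with serially varied compound concentrations for 72 h at 37° C., 5% CO2. A luminescent viability reagent was used for read-out. IC50 was derived relative to vehicle control; maximum inhibition was the inhibition rate at the highest concentration.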

Row | IC50 (Homo sapiens) | Compound | IC50
1 | < 500 nM | Cc1ncsc1-c1ccc([C@H](C)NC(=O)[C@@H]2C[C@@H](O)CN2C(=O)[C@@H](NC(=O)CCCCCC(=O)N2CCN(CC[C@H](CSc3ccccc3)Nc3ccc(S(=O)(=O)NC(=O)c4ccc(N5CCN(CC6=C(c7ccc(Cl)cc7F)CCC7(CC7)C6)CC5)cc4)cc3S(=O)(=O)C(F)(F)F)CC2)C(C)(C)C)cc1 [Compound 31, (2S,4R)-1-((S)-2-(7-(4-((R)-3-((4-(N-(4-(4-((6-(4-chloro-2-fluorophenyl)spiro[2.5]oct-5-en-5-yl)methyl)piperazin-1-yl)benzoyl)sulfamoyl)-2-((trifluoromethyl)sulfonyl)phenyl)amino)-4-(phenylthio)butyl)piperazin-1-yl)-7-oxoheptanamido)-3,3-dimethylbutanoyl)-4-hydroxy-N—((S)-1-(4-(4-methylthiazol-5-yl)phenyl)ethyl)pyrrolidine-2-carboxamide] | –
2 | – | Cc1ncsc1-c1ccc([C@H](C)NC(=O)[C@@H]2C[C@@H](O)CN2C(=O)[C@@H](NC(=O)CCCCCCC(=O)N2CCN(CC[C@H](CSc3ccccc3)Nc3ccc(S(=O)(=O)NC(=O)c4ccc(N5CCN(CC6=C(c7ccc(Cl)cc7F)CCC7(CC7)C6)CC5)cc4)cc3S(=O)(=O)C(F)(F)F)CC2)C(C)(C)C)cc1 [Compound 32, (2S,4R)-1-((S)-2-(8-(4-((R)-3-((4-(N-(4-(4-((6-(4-chloro-2-fluorophenyl)spiro[2.5]oct-5-en-5-yl)methyl)piperazin-1-yl)benzoyl)sulfamoyl)-2-((trifluoromethyl)sulfonyl)phenyl)amino)-4-(phenylthio)butyl)piperazin-1-yl)-8-oxoheptanamido)-3,3-dimethylbutanoyl)-4-hydroxy-N—((S)-1-(4-(4-methylthiazol-5-yl)phenyl)ethyl)pyrrolidine-2-carboxamide] | < 500 nM
3 | < 500 nM | Cc1ncsc1-c1ccc([C@H](C)NC(=O)[C@@H]2C[C@@H](O)CN2C(=O)[C@@H](NC(=O)CCCCCC(=O)N2C[C@@H]3C[C@H]2CN3CC[C@H](CSc2ccccc2)Nc2ccc(S(=O)(=O)NC(=O)c3ccc(N4CCN(CC5=C(c6ccc(Cl)cc6)CCCCC5)CC4)cc3)cc2S(=O)(=O)C(F)(F)F)C(C)(C)C)cc1 [Compound 33, (2S,4R)-1-((S)-2-(7-((1S,4S)-5-((R)-3-((4-(N-(4-(4-((2-(4-chlorophenyl)cyclohept-1-en-1-yl)methyl)piperazin-1-yl)benzoyl)sulfamoyl)-2-((trifluoromethyl)sulfonyl)phenyl)amino)-4-(phenylthio)butyl)-2,5-diazabicyclo[2.2.1]heptan-2-yl)-7-oxoheptanamido)-3,3-dimethylbutanoyl)-4-hydroxy-N—((S)-1-(4-(4-methylthiazol-5-yl)phenyl)ethyl)pyrrolidine-2-carboxamide] | –
4 | < 500 nM | Cc1ncsc1-c1ccc([C@H](C)NC(=O)[C@@H]2C[C@@H](O)CN2C(=O)[C@@H](NC(=O)CCCCCCC(=O)N2C[C@@H]3C[C@H]2CN3CC[C@H](CSc2ccccc2)Nc2ccc(S(=O)(=O)NC(=O)c3ccc(N4CCN(CC5=C(c6ccc(Cl)cc6)CCCCC5)CC4)cc3)cc2S(=O)(=O)C(F)(F)F)C(C)(C)C)cc1 [Compound 34, (2S,4R)-1-((S)-2-(8-((1S,4S)-5-((R)-3-((4-(N-(4-(4-((2-(4-chlorophenyl)cyclohept-1-en-1-yl)methyl)piperazin-1-yl)benzoyl)sulfamoyl)-2-((trifluoromethyl)sulfonyl)phenyl)amino)-4-(phenylthio)butyl)-2,5-diazabicyclo[2.2.1]heptan-2-yl)-8-oxooctanamido)-3,3-dimethylbutanoyl)-4-hydroxy-N—((S)-1-(4-(4-methylthiazol-5-yl)phenyl)ethyl)pyrrolidine-2-carboxamide] | –
5 | < 500 nM | Cc1ncsc1-c1ccc([C@H](C)NC(=O)[C@@H]2C[C@@H](O)CN2C(=O)[C@@H](NC(=O)CCCCCC(=O)N2CCN(CC[C@H](CSc3ccccc3)Nc3ccc(S(=O)(=O)NC(=O)c4ccc(N5CCN(CC6=C(c7ccc(Cl)cc7F)CCCCC6)CC5)cc4)cc3S(=O)(=O)C(F)(F)F)CC2)C(C)(C)C)cc1 [Compound 35, (2S,4R)-1-((S)-2-(7-(4-((R)-3-((4-(N-(4-(4-((2-(4-chloro-2-fluorophenyl)cyclohept-1-en-1-yl)methyl)piperazin-1-yl)benzoyl)sulfamoyl)-2-((trifluoromethyl)sulfonyl)phenyl)amino)-4-(phenylthio)butyl)piperazin-1-yl)-7-oxoheptanamido)-3,3-dimethylbutanoyl)-4-hydroxy-N—((S)-1-(4-(4-methylthiazol-5-yl)phenyl)ethyl)pyrrolidine-2-carboxamide] | –
6 | < 500 nM | Cc1ncsc1-c1ccc([C@H](C)NC(=O)[C@@H]2C[C@@H](O)CN2C(=O)[C@@H](NC(=O)CCCCCCC(=O)N2CCN(CC[C@H](CSc3ccccc3)Nc3ccc(S(=O)(=O)NC(=O)c4ccc(N5CCN(CC6=C(c7ccc(Cl)cc7F)CCCCC6)CC5)cc4)cc3S(=O)(=O)C(F)(F)F)CC2)C(C)(C)C)cc1 [Compound 36, (2S,4R)-1-((S)-2-(8-(4-((R)-3-((4-(N-(4-(4-((2-(4-chloro-2-fluorophenyl)cyclohept-1-en-1-yl)methyl)piperazin-1-yl)benzoyl)sulfamoyl)-2-((trifluoromethyl)sulfonyl)phenyl)amino)-4-(phenylthio)butyl)piperazin-1-yl)-8-oxooctanamido)-3,3-dimethylbutanoyl)-4-hydroxy-N—((S)-1-(4-(4-methylthiazol-5-yl)phenyl)ethyl)pyrrolidine-2-carboxamide] | –
7 | < 500 nM | Cc1ncsc1-c1ccc([C@H](C)NC(=O)[C@@H]2C[C@@H](O)CN2C(=O)[C@@H](NC(=O)CCCCCC(=O)N2C[C@@H]3C[C@H]2CN3CC[C@H](CSc2ccccc2)Nc2ccc(S(=O)(=O)NC(=O)c3ccc(N4CCN(CC5=C(c6ccc(Cl)cc6F)CCCCC5)CC4)cc3)cc2S(=O)(=O)C(F)(F)F)C(C)(C)C)cc1 [Compound 37, (2S,4R)-1-((S)-2-(7-((1S,4S)-5-((R)-3-((4-(N-(4-(4-((2-(4-chloro-2-fluorophenyl)cyclohept-1-en-1-yl)methyl)piperazin-1-yl)benzoyl)sulfamoyl)-2-((trifluoromethyl)sulfonyl)phenyl)amino)-4-(phenylthio)butyl)-2,5-diazabicyclo[2.2.1]heptan-2-yl)-7-oxoheptanamido)-3,3-dimethylbutanoyl)-4-hydroxy-N—((S)-1-(4-(4-methylthiazol-5-yl)phenyl)ethyl)pyrrolidine-2-carboxamide] | –
8 | < 500 nM | Cc1ncsc1-c1ccc([C@H](C)NC(=O)[C@@H]2C[C@@H](O)CN2C(=O)[C@@H](NC(=O)CCCCCCC(=O)N2C[C@@H]3C[C@H]2CN3CC[C@H](CSc2ccccc2)Nc2ccc(S(=O)(=O)NC(=O)c3ccc(N4CCN(CC5=C(c6ccc(Cl)cc6F)CCCCC5)CC4)cc3)cc2S(=O)(=O)C(F)(F)F)C(C)(C)C)cc1 [Compound 38, (2S,4R)-1-((S)-2-(8-((1S,4S)-5-((R)-3-((4-(N-(4-(4-((2-(4-chloro-2-fluorophenyl)cyclohept-1-en-1-yl)methyl)piperazin-1-yl)benzoyl)sulfamoyl)-2-((trifluoromethyl)sulfonyl)phenyl)amino)-4-(phenylthio)butyl)-2,5-diazabicyclo[2.2.1]heptan-2-yl)-8-oxooctanamido)-3,3-dimethylbutanoyl)-4-hydroxy-N—((S)-1-(4-(4-methylthiazol-5-yl)phenyl)ethyl)pyrrolidine-2-carboxamide] | –
9 | < 500 nM | Cc1ncsc1-c1ccc([C@H](C)NC(=O)[C@@H]2C[C@@H](O)CN2C(=O)[C@@H](NC(=O)CCCCCC(=O)N2C[C@H]3CN(CC[C@H](CSc4ccccc4)Nc4ccc(S(=O)(=O)NC(=O)c5ccc(N6CCN(CC7=C(c8ccc(Cl)cc8F)CCCCC7)CC6)cc5)cc4S(=O)(=O)C(F)(F)F)C[C@H]3C2)C(C)(C)C)cc1 [Compound 39, cis-(2S,4R)-1-((S)-2-(7-(5-((R)-3-((4-(N-(4-(4-((2-(4-chloro-2-fluorophenyl)cyclohept-1-en-1-yl)methyl)piperazin-1-yl)benzoyl)sulfamoyl)-2-((trifluoromethyl)sulfonyl)phenyl)amino)-4-(phenylthio)butyl)hexahydropyrrolo[3,4-c]pyrrol-2(1H)-yl)-7-oxoheptanamido)-3,3-dimethylbutanoyl)-4-hydroxy-N—((S)-1-(4-(4-methylthiazol-5-yl)phenyl)ethyl)pyrrolidine-2-carboxamide] | –
10 | < 500 nM | Cc1ncsc1-c1ccc([C@H](C)NC(=O)[C@@H]2C[C@@H](O)CN2C(=O)[C@@H](NC(=O)CCCCCCC(=O)N2C[C@H]3CN(CC[C@H](CSc4ccccc4)Nc4ccc(S(=O)(=O)NC(=O)c5ccc(N6CCN(CC7=C(c8ccc(Cl)cc8F)CCCCC7)CC6)cc5)cc4S(=O)(=O)C(F)(F)F)C[C@H]3C2)C(C)(C)C)cc1 [Compound 40, cis-(2S,4R)-1-((S)-2-(8-(5-((R)-3-((4-(N-(4-(4-((2-(4-chloro-2-fluorophenyl)cyclohept-1-en-1-yl)methyl)piperazin-1-yl)benzoyl)sulfamoyl)-2-((trifluoromethyl)sulfonyl)phenyl)amino)-4-(phenylthio)butyl)hexahydropyrrolo[3,4-c]pyrrol-2(1H)-yl)-8-oxooctanamido)-3,3-dimethylbutanoyl)-4-hydroxy-N—((S)-1-(4-(4-methylthiazol-5-yl)phenyl)ethyl)pyrrolidine-2-carboxamide] | –
11 | < 500 nM | Cc1ncsc1-c1ccc([C@H](C)NC(=O)[C@@H]2C[C@@H](O)CN2C(=O)[C@@H](NC(=O)CCCCCC(=O)N2C[C@H]3CN(CC[C@H](CSc4ccccc4)Nc4ccc(S(=O)(=O)NC(=O)c5ccc(N6CCN(CC7=C(c8ccc(Cl)cc8)CCCCC7)CC6)cc5)cc4S(=O)(=O)C(F)(F)F)C[C@H]3C2)C(C)(C)C)cc1 [Compound 41, cis-(2S,4R)-1-((S)-2-(7-(5-((R)-3-((4-(N-(4-(4-((2-(4-chlorophenyl)cyclohept-1-en-1-yl)methyl)piperazin-1-yl)benzoyl)sulfamoyl)-2-((trifluoromethyl)sulfonyl)phenyl)amino)-4-(phenylthio)butyl)hexahydropyrrolo[3,4-c]pyrrol-2(1H)-yl)-7-oxoheptanamido)-3,3-dimethylbutanoyl)-4-hydroxy-N—((S)-1-(4-(4-methylthiazol-5-yl)phenyl)ethyl)pyrrolidine-2-carboxamide] | –
